Experiments:
P. aeruginosa = test: Microbial spectrum, P. aeruginosa; type: cell-based, Pseudomonas aeruginosa; settings: clavulanate 4 μg/mL; Table S4
Mtb H37Rv [1] = test: MIC90 against nonreplicating (NR, 4-stress) Mtb H37Rv, with or without clavulanate; type: cell-based, Mycobacterium tuberculosis; settings: 4-stress nonreplicating, Table S4; for Mtb H37Rv NR + CLAV (MIC90): clavulanate 4 μg/mL; for Mtb H37Rv NR (MIC90): no clavulanate
Mtb H37Rv [2] = test: MIC90 against replicating (R) Mtb H37Rv, with or without clavulanate; type: cell-based, Mycobacterium tuberculosis; settings: Table S4; for Mtb H37Rv R + CLAV (MIC90): clavulanate 4 μg/mL; for Mtb H37Rv R (MIC90): no clavulanate
S. aureus = test: Microbial spectrum, S. aureus; type: cell-based, Staphylococcus aureus; settings: clavulanate 4 μg/mL; Table S4
E. coli = test: Microbial spectrum, E. coli; type: cell-based, Escherichia coli; settings: clavulanate 4 μg/mL; Table S4
C. albicans = test: Microbial spectrum, C. albicans; type: cell-based, Candida albicans; settings: no clavulanate; Table S4
[3] = In vitro plasma stability, CD-1 mouse plasma; settings: 2 μM, 37 °C, time point 120 min
[4] = In vitro plasma stability, beagle dog plasma; settings: 2 μM, 37 °C, time point 120 min
[5] = In vitro plasma stability, SD rat plasma; settings: 2 μM, 37 °C, time point 120 min
[6] = Stability in fasted simulated intestinal fluid (FaSSIF); settings: 10 μM, pH 6.5, room temperature
[7] = Stability in simulated gastric fluid (SGF); settings: 10 μM, pH 1.2, room temperature
[8] = In vitro plasma stability, human plasma; settings: 2 μM, 37 °C, time point 120 min
[9] = In vitro plasma stability, cynomolgus monkey plasma; settings: 2 μM, 37 °C, time point 120 min

| Structure (SMILES) | P.aeruginosa R + CLAV (MIC90) (P. aeruginosa) | Mtb H37Rv NR + CLAV (MIC90) (Mtb H37Rv [1]) | Mtb H37Rv NR (MIC90) (Mtb H37Rv [1]) | Mtb H37Rv R + CLAV (MIC90) (Mtb H37Rv [2]) | Mtb H37Rv R (MIC90) (Mtb H37Rv [2]) | S.aureus R + CLAV (MIC90) (S. aureus) | E.coli R + CLAV (MIC90) (E. coli) | C.albicans R (MIC90) (C. albicans) | Plasma stability % Remaining, Mouse [3] | Plasma stability % Remaining, Dog [4] | Plasma stability % Remaining, Rat [5] | FaSSIF Stability, % remaining, 6h ([6]; 6 h) | FaSSIF Stability, % remaining, 24h ([6]; 24 h) | SGF Stability, % remaining, 1h ([7]; 1 h) | SGF Stability, % remaining, 24h ([7]; 24 h) | Plasma stability % Remaining, Human [8] | Plasma stability % Remaining, Monkey [9] |
| --- | --- | --- | --- | --- | --- | --- | --- | --- | --- | --- | --- | --- | --- | --- | --- | --- | --- |
| CC(O)Cn1nnnc1SCC1=C(C(=O)O)N2C(=O)[C@@H](NC(=O)Cc3csc(=O)s3)[C@H]2SC1 (stereo partly drawn) [TBBL-0000325] | > 100 µM | > 100 µM | > 100 µM | 1.4 µM | 53.2 µM | 0.6 µM | 3.8 µM | > 100 µM |  |  |  |  |  |  |  |  |  |
| Cc1nnc(SCC2=C(C(=O)O)N3C(=O)[C@@H](NC(=O)Cc4sc(=O)sc4C)[C@H]3SC2)s1 [TBBL-0000330] | > 100 µM | > 100 µM | > 100 µM | 2.8 µM | 27.6 µM | > 100 µM | > 100 µM | > 100 µM |  |  |  |  |  |  |  |  |  |
| CC1=C(C(=O)O)N2C(=O)[C@@H](NC(=O)CSc3ccc(C(=N)N)cc3)[C@H]2SC1 [TBBL-0000328] | > 100 µM | > 100 µM | > 100 µM | 1.4 µM | 64.1 µM | 12.9 µM | > 100 µM | > 100 µM |  |  |  |  |  |  |  |  |  |
| N=C(N)SCc1ccccc1SC1=C(C(=O)O)N2C(=O)[C@@H](NC(=O)C(N)c3ccccc3)[C@H]2CC1 (stereo partly drawn) [TBBL-0000435] | > 100 µM | > 100 µM | > 100 µM | 1.1 µM | 90.2 µM | 0.8 µM | > 100 µM | > 100 µM |  |  |  |  |  |  |  |  |  |
| Nc1nnc(SCC2=C(C(=O)O)N3C(=O)[C@@H](NC(=O)CSc4cc(Cl)ccc4Cl)[C@H]3SC2)s1 [TBBL-0000467] | > 100 µM | > 100 µM | > 100 µM | 1.5 µM | 52.2 µM | < 0.1 µM | > 100 µM | > 100 µM |  |  |  |  |  |  |  |  |  |
| NCCSC=CC1=C(C(=O)O)N2C(=O)C(NC(=O)CSc3ccc(Cl)c(Cl)c3)C2SC1 (stereo not drawn) [TBBL-0000306] | > 100 µM | > 100 µM | > 100 µM | 0.3 µM | 14.4 µM | > 100 µM | > 100 µM | > 100 µM | 33.8% | 16.6% | 23.0% | 102.19% | 98.38% | 110.19% | 92.52% | 9.5% | 2.0% |
| O=C(Cc1csc(=O)s1)N[C@@H]1C(=O)N2C(C(=O)O)=C(CSc3nnnn3CCO)CS[C@H]12 [TBBL-0000305] | > 100 µM | > 100 µM | > 100 µM | 2.1 µM | 40.7 µM | > 100 µM | 7.5 µM | > 100 µM |  |  |  |  |  |  |  |  |  |
| Cn1nnnc1SCC1=C(C(=O)O)N2C(=O)[C@@H](NC(=O)CSc3cc(Cl)ccc3Cl)[C@H]2SC1 [TBBL-0000446] | > 100 µM | > 100 µM | > 100 µM | 1.5 µM | 20.7 µM | < 0.1 µM | 13.3 µM | > 100 µM |  |  |  |  |  |  |  |  |  |
| Cn1nnnc1SCC1=C(C(=O)O)N2C(=O)[C@@H](NC(=O)Cc3ccc(C4=NCCN4)cc3)[C@H]2SC1 [TBBL-0000323] | > 100 µM | > 100 µM | > 100 µM | 0.8 µM | 31.9 µM | 1.8 µM | 14 µM | > 100 µM |  |  |  |  |  |  |  |  |  |
| CCc1cc[n+](CC2=C(C(=O)[O-])N3C(=O)[C@@H](NC(=O)Cc4cccs4)[C@H]3SC2)cc1 [TBBL-0000418] | > 100 µM | > 100 µM | > 100 µM | 1.4 µM | 100 µM | 0.5 µM | 7 µM | > 100 µM |  |  |  |  |  |  |  |  |  |
| O=C(Cc1cccs1)N[C@@H]1C(=O)N2C(C(=O)O)=C(C[n+]3ccccn3)CS[C@H]12 [TBBL-0000466] | > 100 µM | > 100 µM | > 100 µM | 1.8 µM | 39 µM | 0.5 µM | 35.1 µM | > 100 µM |  |  |  |  |  |  |  |  |  |
| Cc1nnc(SCC2=C(C(=O)O)N3C(=O)[C@@H](NC(=O)CSc4cc(Cl)ccc4Cl)[C@H]3SC2)s1 [TBBL-0000415] | > 100 µM | > 100 µM | > 100 µM | 1.6 µM | 22.9 µM | < 0.1 µM | 22.7 µM | > 100 µM |  |  |  |  |  |  |  |  |  |
| CC(=O)OC(C(=O)N[C@@H]1C(=O)N2C(C(=O)O)=C(CSc3cccc[n+]3[O-])CS[C@H]12)c1ccccc1 (stereo partly drawn) [TBBL-0000007] | > 100 µM | 2.5 µM | 2.3 µM | 2.8 µM | 2.3 µM | 2.4 µM | 85.1 µM | > 100 µM |  |  |  |  |  |  |  |  |  |
| C=CCn1nnnc1SCC1=C(C(=O)O)N2C(=O)[C@@H](NC(=O)Cc3ccc(C4=NCCN4)cc3)[C@H]2SC1 [TBBL-0000312] | > 100 µM | > 100 µM | > 100 µM | 0.8 µM | 22.1 µM | 1.1 µM | > 100 µM | > 100 µM |  |  |  |  |  |  |  |  |  |
| CCCn1nnnc1SCC1=C(C(=O)O)N2C(=O)[C@@H](NC(=O)Cc3ccc(C4=NCCN4)cc3)[C@H]2SC1 [TBBL-0000311] | > 100 µM | > 100 µM | > 100 µM | 0.8 µM | 14.1 µM | 0.9 µM | > 100 µM | > 100 µM |  |  |  |  |  |  |  |  |  |
| O=C(Cc1cccs1)N[C@@H]1C(=O)N2C(C(=O)[O-])=C(C[n+]3ccccc3)CS[C@H]12 [TBBL-0000493] | > 100 µM | > 100 µM | > 100 µM | 2.2 µM | 50 µM | 0.8 µM | 37.9 µM | > 100 µM |  |  |  |  |  |  |  |  |  |
| CCn1nnnc1SCC1=C(C(=O)O)N2C(=O)[C@@H](NC(=O)Cc3ccc(C4=NCCCN4)cc3)[C@H]2SC1 [TBBL-0000318] | > 100 µM | > 100 µM | > 100 µM | 0.8 µM | 24.5 µM | 2 µM | 60.5 µM | > 100 µM |  |  |  |  |  |  |  |  |  |
| O=C(Cn1cnnn1)N[C@@H]1C(=O)N2C(C(=O)O)=C(CSc3cccc[n+]3[O-])CS[C@H]12 [TBBL-0000002] | > 100 µM | 3 µM | 4.4 µM | 5.8 µM | 5.7 µM | 3.7 µM | 15.3 µM | > 100 µM |  |  |  |  |  |  |  |  |  |
| CCn1nnnc1SCC1=C(C(=O)O)N2C(=O)[C@@H](NC(=O)Cc3ccc(C4=NCCN4)cc3)[C@H]2SC1 [TBBL-0000313] | > 100 µM | > 100 µM | > 100 µM | 0.6 µM | 17.3 µM | 0.8 µM | 11.6 µM | > 100 µM |  |  |  |  |  |  |  |  |  |
| CC(=O)OCC1=C(C(=O)O)N2C(=O)[C@@H](NC(=O)CSc3nc4ccccc4s3)[C@H]2SC1 [TBBL-0000010] | > 100 µM | > 100 µM | > 100 µM | 3.9 µM | 62 µM | 0.2 µM | > 100 µM | > 100 µM |  |  |  |  |  |  |  |  |  |
| O=C(CSc1cccc[n+]1[O-])N[C@@H]1C(=O)N2C(C(=O)O)=C(CSc3cccc[n+]3[O-])CS[C@H]12 [TBBL-0000003] | > 100 µM | 3.5 µM | 3.2 µM | 3.8 µM | 4.8 µM | 4.3 µM | 44.1 µM | > 100 µM |  |  |  |  |  |  |  |  |  |
